Laboratory results as given in US9580463B2 (BRISTOL-MYERS SQUIBB COMPANY, priority 2013, dated 2017).
Read-outs that look alike come from different tables or passages of the source.

Assays:
[1] = test system: HCV genotype 1a (H77 strain) replicon in HUH-7 cells; assay: HCV replicon luciferase reporter assay, genotype 1a; assay type: cell-based; conditions: Hepatitis C virus, 72 h, genotype 1a replicon, 3 days incubation
From the text: An HCV replicon whole cell system was established as described by Lohmann V, Korner F, Koch J, Herian U, Theilmann L, Bartenschlager R., Science 285(5424):110-3 (1999) and modified to introduce a luciferase reporter, as first described by Krieger et al (Krieger N, Lohmann V, and Bartenschlager R, J. Virol. 75(10):4614-4624 (2001)). CDNA encoding a humanized form of the Renilla luciferase gene and a linker sequence fused directly to the 3′-end of the luciferase gene were introduced into the replicon construct using an Asc1 restriction site located in core, directly upstream of the neomycin marker gene. The adaptive mutation at position 1179 (serine to isoleucine) was also introduced (Blight K J, Kolykhalov, A A, Rice, C M, Science 290(5498):1972-1974). A stable cell line constitutively expressing this HCV replicon construct was generated by first linearizing plasmid DNAs with ScaI. RNA transcripts were synthesized in vitro using the T7 MegaScript transcription kit (Ambion, Austin, Tex.) according to manufacturer's directions. In vitro transcripts of the cDNA were transfected into the human hepatoma cell line, HUH-7. […] Resulting cell lines were characterized for positive and negative strand RNA production and protein production over time.
A stable HCV replicon luciferase reporter cell line representing the genotype 1a H77 strain (Yanagi M, Purcell R H, Emerson S U, et al. Transcripts from a single full-length cDNA clone of hepatitis C virus are infectious when directly transfected into the liver of a chimpanzee. Proc Natl Acad Sci USA 1997; 94(16):8738-8743) was generated as described previously for the genotype 1b (Con1) replicon luciferase cell line. The replicon construct was modified by introducing mutations were introduced into the genes encoding the NS3 helicase domain (proline replaced by leucine at position 1496) and NS5A (serine to isoleucine at position 2204) to improve replication in cell culture.
HCV replicon luciferase assays were developed to monitor the inhibitory effects of compounds described in the disclosure on HCV genotypes 1a and 1b viral replication. HUH-7 cells, constitutively expressing the HCV replicon, were grown in Dulbecco's Modified Eagle Media (DMEM) (Gibco-BRL) containing 10% Fetal calf serum (FCS) (Sigma) and 1 mg/mL G418 (Gibco-BRL). Compounds were serially diluted 3 folds in DMSO for a twenty-point titration and subsequently transferred to sterile 384-well tissue-culture treated plates (Corning cat #3571). The plates were then seeded with 50 μL of cells at a density of 3.0×10^3 cells/well in DMEM containing 4% FCS (final DMSO concentration at 0.5%). After 3 days incubation at 37° C., cells were analyzed for Renilla Luciferase activity using the EnduRen as substrate (Promega cat #E6485). The EnduRen substrate was diluted in DMEM and then added to the plates to a final concentration of 7.5 μM. The plates were incubated for 2 hrs at 37° C. and then read immediately for 30 seconds with Viewlux Imager (PerkinElmer) using a luminescence program. To assess cytotoxicity of compounds, CC50 values were generated by multiplexing the EnduRen-containing plates with Cell Titer-Blue (Promega, cat # G8082). Cell-Titer Blue (3 μL) was added to each well and incubated for 8 hrs at 37° C. The fluorescence signal from each well was read, with an excitation wavelength at 525/10 nm and an emission wavelength of 598/10 nm, using the Viewlux Imager.
The EC50 values for compounds were calculated by using a four-parameter logistic equation: y=A+((B−A)/(1+((C/x)^D))), where A and B denotes minimal and maximal % inhibition, respectively, C is the EC50, D is the hill slope and x represents compound concentration.

[2] = test system: HCV genotype 1b (Con1) replicon in HUH-7 cells; assay: HCV replicon luciferase reporter assay, genotype 1b; assay type: cell-based; conditions: Hepatitis C virus, 72 h, genotype 1b replicon, 3 days incubation
How it was run: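 Twenty-point, threefold compound titrations (0.5% DMSO) were incubated 3 days at 37 °C with 3.0×10^3 HUH-7 cells/well in 4% FCS. The cells stably carried luciferase replicons: genotype 1b Con1 (S1179I) or 1a H77 (NS3 P1496L, NS5A S2204I). Renilla signal was read after 2 h with 7.5 μM EnduRen, and EC50 was taken from a four-parameter logistic fit. Cytotoxicity (CC50) was measured by Cell Titer-Blue, 8 h.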

Structure (SMILES) | EC50 ([1]; read-out: LE_1a (EC50)) [nM] | EC50 ([1]; read-out: LE_1a (EC50, range)) [nM] | EC50 ([2]; read-out: LE_1b (EC50)) [nM] | EC50 ([2]; read-out: LE_1b (EC50, range)) [nM]
COC[C@@H]1C[C@H](C)CC/C=C\[C@@H]2C[C@@]2(C(=O)NS(=O)(=O)C2(C)CC2)NC(=O)[C@@H]2C[C@@H](Oc3ncc(OC)c4ccccc34)CN2C(=O)[C@H]1NC(=O)OC(C)(C)C(F)(F)F [Compound 1016, 1,1,1-trifluoro-2-methylpropan-2-yl ((2R,6S,7R,9R,13aS,14aR,16aS,Z)-2-((4-methoxyisoquinolin-1-yl)oxy)-7-(methoxymethyl)-9-methyl-14a-(((1-methylcyclopropyl)sulfonyl)carbamoyl)-5,16-dioxo-1,2,3,5,6,7,8,9,10,11,13a,14,14a,15,16,16a-hexadecahydrocyclopropa[e]pyrrolo[1,2-a][1,4]diazacyclopentadecin-6-yl)carbamate] | 0.84 | 0.51 to 1 | 0.26 | 0.1 to 0.5
COC[C@@H]1C[C@@H](C)CC/C=C\[C@@H]2C[C@@]2(C(=O)NS(=O)(=O)C2(C)CC2)NC(=O)[C@@H]2C[C@@H](Oc3ncc(OC)c4ccccc34)CN2C(=O)[C@H]1NC(=O)OC(C)(C)C(F)(F)F [Compound 1017, 1,1,1-trifluoro-2-methylpropan-2-yl ((2R,6S,7R,9S,13aS,14aR,16aS,Z)-2-((4-methoxyisoquinolin-1-yl)oxy)-7-(methoxymethyl)-9-methyl-14a-(((1-methylcyclopropyl)sulfonyl)carbamoyl)-5,16-dioxo-1,2,3,5,6,7,8,9,10,11,13a,14,14a,15,16,16a-hexadecahydrocyclopropa[e]pyrrolo[1,2-a][1,4]diazacyclopentadecin-6-yl)carbamate] | – | 1.01 to 5 | – | 0.51 to 1
COC[C@@H]1C[C@@H](C)CC/C=C\[C@@H]2C[C@@]2(C(=O)NS(=O)(=O)C2CC2)NC(=O)[C@@H]2C[C@@H](Oc3nccc4cc(OC)ccc34)CN2C(=O)[C@H]1NC(=O)OC(C)(C)C(F)(F)F [Compound 1018, 1,1,1-trifluoro-2-methylpropan-2-yl ((2R,6S,7R,9S,13aS,14aR,16aS,Z)-14a-((cyclopropylsulfonyl)carbamoyl)-2-((6-methoxyisoquinolin-1-yl)oxy)-7-(methoxymethyl)-9-methyl-5,16-dioxo-1,2,3,5,6,7,8,9,10,11,13a,14,14a,15,16,16a-hexadecahydrocyclopropa[e]pyrrolo[1,2-a][1,4]diazacyclopentadecin-6-yl)carbamate] | – | 1.01 to 5 | – | 1.01 to 5
COC[C@@H]1C[C@H](C)CC/C=C\[C@@H]2C[C@@]2(C(=O)NS(=O)(=O)C2CC2)NC(=O)[C@@H]2C[C@@H](Oc3nccc4cc(OC)ccc34)CN2C(=O)[C@H]1NC(=O)OC(C)(C)C(F)(F)F [Compound 1019, 1,1,1-trifluoro-2-methylpropan-2-yl ((2R,6S,7R,9R,13aS,14aR,16aS,Z)-14a-((cyclopropylsulfonyl)carbamoyl)-2-((6-methoxyisoquinolin-1-yl)oxy)-7-(methoxymethyl)-9-methyl-5,16-dioxo-1,2,3,5,6,7,8,9,10,11,13a,14,14a,15,16,16a-hexadecahydrocyclopropa[e]pyrrolo[1,2-a][1,4]diazacyclopentadecin-6-yl)carbamate] | – | 1.01 to 5 | – | 0.51 to 1
COC[C@@H]1CCCC/C=C\[C@@H]2C[C@@]2(C(=O)NS(=O)(=O)C2CC2)NC(=O)[C@@H]2C[C@@H](Oc3nc4cc(OC)ccc4nc3C(F)(F)F)CN2C(=O)[C@H]1NC(=O)OC(C)(C)C [Compound 1020, tert-butyl ((2R,6S,7R,13aS,14aR,16aS,Z)-14a-((cyclopropylsulfonyl)carbamoyl)-2-((7-methoxy-3-(trifluoromethyl)quinoxalin-2-yl)oxy)-7-(methoxymethyl)-5,16-dioxo-1,2,3,5,6,7,8,9,10,11,13a,14,14a,15,16,16a-hexadecahydrocyclopropa[e]pyrrolo[1,2-a][1,4]diazacyclopentadecin-6-yl)carbamate] | – | 1.01 to 5 | – | 0.51 to 1
COC[C@@H]1CCCC/C=C\[C@@H]2C[C@@]2(C(=O)NS(=O)(=O)C2CC2)NC(=O)[C@@H]2C[C@@H](Oc3nc4cc(OC)ccc4nc3C(F)(F)F)CN2C(=O)[C@H]1NC(=O)OC(C)(C)C(F)(F)F [Compound 1021, 1,1,1-trifluoro-2-methylpropan-2-yl ((2R,6S,7R,13aS,14aR,16aS,Z)-14a-((cyclopropylsulfonyl)carbamoyl)-2-((7-methoxy-3-(trifluoromethyl)quinoxalin-2-yl)oxy)-7-(methoxymethyl)-5,16-dioxo-1,2,3,5,6,7,8,9,10,11,13a,14,14a,15,16,16a-hexadecahydrocyclopropa[e]pyrrolo[1,2-a][1,4]diazacyclopentadecin-6-yl)carbamate] | – | 1.01 to 5 | – | 0.1 to 0.5
COC[C@@H]1CCCC/C=C\[C@@H]2C[C@@]2(C(=O)NS(=O)(=O)C2CC2)NC(=O)[C@@H]2C[C@@H](Oc3nccc4cc(OC)c(F)cc34)CN2C(=O)[C@H]1NC(=O)OC(C)(C)C [Compound 1022] | – | 1.01 to 5 | – | 1.01 to 5
COC[C@@H]1CCCC/C=C\[C@@H]2C[C@@]2(C(=O)NS(=O)(=O)C2CC2)NC(=O)[C@@H]2C[C@@H](Oc3nccc4cc(OC)c(F)cc34)CN2C(=O)[C@H]1NC(=O)OC(C)(C)C(F)(F)F [Compound 1023] | – | 1.01 to 5 | – | 0.1 to 0.5
COC[C@@H]1C[C@@H](C)CC/C=C\[C@@H]2C[C@@]2(C(=O)NS(=O)(=O)C2(CF)CC2)NC(=O)[C@@H]2C[C@@H](Oc3nc4cc(OC)ccc4nc3C(C)C)CN2C(=O)[C@H]1NC(=O)OC(C)(C)C [Compound 1024, tert-butyl ((2R,6S,7R,9S,13aS,14aR,16aS,Z)-14a-(((1-(fluoromethyl)cyclopropyl)sulfonyl)carbamoyl)-2-((3-isopropyl-7-methoxyquinoxalin-2-yl)oxy)-7-(methoxymethyl)-9-methyl-5,16-dioxo-1,2,3,5,6,7,8,9,10,11,13a,14,14a,15,16,16a-hexadecahydrocyclopropa[e]pyrrolo[1,2-a][1,4]diazacyclopentadecin-6-yl)carbamate] | – | 35 to 620 | – | 5.01 to 35
COC[C@@H]1C[C@H](C)CC/C=C\[C@@H]2C[C@@]2(C(=O)NS(=O)(=O)C2(CF)CC2)NC(=O)[C@@H]2C[C@@H](Oc3nc4cc(OC)ccc4nc3C(C)C)CN2C(=O)[C@H]1NC(=O)OC(C)(C)C [Compound 1025, tert-butyl ((2R,6S,7R,9R,13aS,14aR,16aS,Z)-14a-(((1-(fluoromethyl)cyclopropyl)sulfonyl)carbamoyl)-2-((3-isopropyl-7-methoxyquinoxalin-2-yl)oxy)-7-(methoxymethyl)-9-methyl-5,16-dioxo-1,2,3,5,6,7,8,9,10,11,13a,14,14a,15,16,16a-hexadecahydrocyclopropa[e]pyrrolo[1,2-a][1,4]diazacyclopentadecin-6-yl)carbamate] | 7.01 | 5.01 to 35 | 1.38 | 1.01 to 5
